We go through 60 compounds from patent US8735417B2, “Aminopyrimidines as Syk inhibitors” (Merck Sharp & Dohme Corp., priority 2009, dated 2014).

Where only a bound is given, the exact number is not on record here.

In this experiment the target is T1, recombinant human GST-SYK (Homo sapiens, UniProt P43405).
T1 construct: purchased Carna Biosciences 08-176
The experiment can be described thus: Homogeneous Time-Resolved Fluorescence (HTRF) assay for the recombinant human SYK enzyme. Type of experiment: biochemical. The note with it: recombinant human GST-SYK 5 pM, ATP 25 μM, 10-dose titration; read-out: rhSYK Activity (IC50). The protocol: Homogeneous Time-Resolved Fluorescence (HTRF) Assay for the Recombinant Human SYK Enzyme:
A recombinant GST-hSYK fusion protein was used to measure potency of compounds to inhibit human SYK activity. The recombinant human GST-SYK (Carna Biosciences #08-176) (5 pM final concentration) was incubated with various concentrations of the inhibitor diluted in DMSO (0.1% final concentration) for 10 minutes at room temperature in 15 mM Tris-HCl (pH 7.5), 0.01% tween 20, 2 mM DTT in 384 well plate format. To initiate the reaction the biotinylated substrate peptide (250 nM final concentration) that contains the phosphorylation site for SYK was added with magnesium (5 mM final concentration) and ATP (25 μM final concentration). Final volume of the reaction was 10 μL. Phosphorylation of the peptide was allowed to proceed for 45′ at room temperature. To quench the reaction and detect the phosphorylated product, 2 nM of a Europium-atiti-phosphotyrosine antibody (Perkin Elmer #AD0161) and 70 nM SA-APC (Perkin-Elmer #CR130-100) were added together in 15 mM Tris pH 7.5, 40 mM EDTA, 0.01% tween 20. Final volume of the quenching solution was 10 μL. The resulting HTRF signal was measured after 30 minutes on a EnVision (Perkin-Elmer) reader using a time-resolved fluorescence protocol.
For orientation: Time-resolved FRET reads energy transfer from a long-lived donor to a nearby acceptor.
Broadly, the IC50 is the concentration that inhibits the measured activity by half. On to `OCCN(Cc1ccccn1)c1ncc(-c2cccc(Nc3nccc(C(F)(F)F)n3)c2)s1` [Example 8], for which the IC50 was no more than 100 nM.
Regarding `FC(F)(F)c1ccnc(Nc2cccc(-c3cnc(NCc4cccc(N5CCCCC5)c4)s3)c2)n1` [Example 57], the IC50 is 1000 to 10000 nM.
With `Cc1nn(C)c(C)c1CNc1ncc(-c2cccc(Nc3nccc(C(F)(F)F)n3)c2)s1` [Example 79] the figure was no more than 100 nM; with `FC(F)(F)c1ccnc(Nc2cccc(-c3cnc(NCc4ccccn4)s3)c2)n1` [Example 37], no more than 100 nM; with `FC(F)(F)c1ccnc(Nc2cccc(-c3cnc(N4CCC(n5cc(-c6ccccc6)nn5)CC4)s3)c2)n1` [Example 137], 100 to 1000 nM.
With `FC(F)CNc1ncc(-c2cccc(Nc3nccc(C(F)(F)F)n3)c2)s1` [Example 38], the IC50 was no more than 100 nM.
With `Cc1cc(Nc2nccc(C(F)(F)F)n2)cc(-c2cnc(N3CCn4ccnc4C3)s2)c1` [Example 173] the figure was no more than 100 nM.
Consider `CC(Cc1cnccn1)Nc1ncc(-c2cccc(Nc3nccc(C(F)(F)F)n3)c2)s1` (stereo not drawn) [Example 56], for which the IC50 is no more than 100 nM.
With `FC(F)(F)c1ccnc(Nc2cccc(-c3cnc(N4CCOC(C(F)(F)F)C4)s3)c2)n1` (stereo not drawn) [Example 121] the figure was 100 to 1000 nM; with `OCCC1CCN(c2ncc(-c3cccc(Nc4nccc(C(F)(F)F)n4)c3)s2)CC1` [Example 141], no more than 100 nM; with `CC(=O)OCC(=O)Nc1ncc(-c2cccc(Nc3nccc(C(F)(F)F)n3)c2)s1` [Example 182, 2-oxo-2-{[5-(3-{[4-(trifluoromethyl)pyrimidin-2-yl]amino}phenyl)-1,3-thiazol-2-yl]amino}ethyl acetate], no more than 100 nM.
On to `CC(C)(C)OC(=O)NCC1CCN(c2ncc(-c3cccc(Nc4nccc(C(F)(F)F)n4)c3)s2)CC1` [Example 138], for which the IC50 is 1000 to 10000 nM.
For the compound `Cc1cc(Nc2nccc(C(F)(F)F)n2)cc(-c2cnc(N3CCN4CCCC4C3)s2)c1` (stereo not drawn) [Example 172], the IC50 was no more than 100 nM.
In the case of `OCC1CCCN(c2ncc(-c3cccc(Nc4nccc(C(F)(F)F)n4)c3)s2)C1` (stereo not drawn) [Example 134], the IC50 was no more than 100 nM.
As for `Cc1cc(Nc2nccc(C(F)(F)F)n2)cc(-c2cnc(NCc3cccnc3)s2)c1` [Example 85], the figure is no more than 100 nM; as for `Cc1cc(Nc2nccc(C(F)(F)F)n2)cc(-c2cnc(NCCc3cscn3)s2)c1` [Example 110], no more than 100 nM; as for `Cc1cc(Nc2nccc(C(F)(F)F)n2)cc(-c2cnc(NCc3cc(C)on3)s2)c1` [Example 97], no more than 100 nM.
As for `FC(F)(F)c1ccnc(Nc2cccc(-c3cnc(NCCc4cccs4)s3)c2)n1` [Example 40], the figure is 100 to 1000 nM; as for `CC(C)C(CO)Nc1ncc(-c2cccc(Nc3nccc(C(F)(F)F)n3)c2)s1` (stereo not drawn) [Example 20], no more than 100 nM.
As for `NC1CCN(c2ncc(-c3cccc(Nc4nccc(C(F)(F)F)n4)c3)s2)CC1` [Example 143], the figure is no more than 100 nM; as for `Oc1ccc(CCNc2ncc(-c3cccc(Nc4nccc(C(F)(F)F)n4)c3)s2)cc1` [Example 46], 100 to 1000 nM.
As to `COCC(=O)N1CCN(c2ncc(-c3cccc(Nc4nccc(C(F)(F)F)n4)c3)s2)CC1` [Example 127], the IC50 was no more than 100 nM.
In the case of `FC(F)(F)c1ccnc(Nc2cccc(-c3cnc(NCC4CCOC4)s3)c2)n1` (stereo not drawn) [Example 45], the IC50 is no more than 100 nM.
On to `Cc1cc(Nc2nccc(C(F)(F)F)n2)cc(-c2cnc(NCc3ccncc3)s2)c1` [Example 86], for which the half-maximal inhibitory concentration (IC50) was no more than 100 nM.
For the compound `OCCCCNc1ncc(-c2cccc(Nc3nccc(C(F)(F)F)n3)c2)s1` [Example 18], the IC50 is no more than 100 nM.
As for `CCC(CO)Nc1ncc(-c2cc(C)cc(Nc3nccc(C(F)(F)F)n3)c2)s1` (stereo not drawn) [Example 84], the IC50 was no more than 100 nM.
As for `CC(=O)NCCC1CCN(c2ncc(-c3cc(C)cc(Nc4nccc(C(F)(F)F)n4)c3)s2)CC1` [Example 150], the IC50 is no more than 100 nM.
As for `OC1CCN(c2ncc(-c3cccc(Nc4nccc(C(F)(F)F)n4)c3)s2)C1` (stereo not drawn) [Example 158], the figure is no more than 100 nM; as for `CCC(C)Nc1ncc(-c2cccc(Nc3nccc(C(F)(F)F)n3)c2)s1` (stereo not drawn) [Example 42], no more than 100 nM.
As for `COc1ccnc(Nc2cc(C)cc(-c3sc(N4CCCNC(=O)C4)nc3Cl)c2)n1` [Example 227, 4-(4-chloro-5-{3-[(4-methoxypyrimidin-2-yl)amino]-5-methylphenyl}-1,3-thiazol-2-yl)-1,4-diazepan-2-one], the figure is no more than 100 nM; as for `O=C1OCCN1c1ncc(-c2cccc(Nc3nccc(C(F)(F)F)n3)c2)s1` [Example 175, 3-[5-(3-{[4-(trifluoromethyl)pyrimidin-2-yl]amino}phenyl)-1,3-thiazol-2-yl]-1,3-oxazolidin-2-one], no more than 100 nM.
In the case of `Cc1cc(Nc2nccc(OCCO)n2)cc(-c2cnc(N3CCCNC(=O)C3)s2)c1` [Example 218], the IC50 is no more than 100 nM.
As for `Cc1cc(Nc2nccc(C(F)(F)F)n2)cc(-c2cnc(NCc3cnsc3)s2)c1` [Example 104], the IC50 was no more than 100 nM.
Take `Cc1cc(Nc2nccc(SCCO)n2)cc(-c2cnc(N3CCCNC(=O)C3)s2)c1` [Example 222, 4-{5-[3-({4-[(2-hydroxyethyl)sulfanyl]pyrimidin-2-yl}amino)-5-methylphenyl]-1,3-thiazol-2-yl}-1,4-diazepan-2-one]: the IC50 is no more than 100 nM.
On to `Cc1cc(CNc2ncc(-c3cccc(Nc4nccc(C(F)(F)F)n4)c3)s2)n(C)n1` [Example 69], for which the IC50 is no more than 100 nM.
For the compound `Cc1cc(Nc2nccc(C(F)(F)F)n2)cc(-c2cnc(NCc3cc(C)n(C)n3)s2)c1` [Example 88], the concentration for half-maximal inhibition (IC50) was no more than 100 nM.
With `CCNC(=O)Nc1cc(Nc2nccc(C(F)(F)F)n2)cc(-c2cnc(N3CCCNC(=O)C3)s2)c1` [Example 185, 1-ethyl-3-(3-[2-(3-oxo-1,4-diazepan-1-yl)-1,3-thiazol-5-yl]-5-{[4-(trifluoromethyl)pyrimidin-2-yl]amino}phenyl)urea] the figure was no more than 100 nM; with `CC(=O)Nc1cc(Nc2nccc(C(F)(F)F)n2)cc(-c2cnc(NCCO)s2)c1` [Example 187], no more than 100 nM.
As to `Cc1cc(Nc2nccc(C(F)(F)F)n2)cc(-c2cnc(NCCc3ccco3)s2)c1` [Example 107], the IC50 is no more than 100 nM.
As to `Cc1cc(Nc2nccc(OC3CCOC3)n2)cc(-c2cnc(N3CCCNC(=O)C3)s2)c1` (stereo not drawn) [Example 214], the IC50 is no more than 100 nM.
As for `FC(F)(F)c1ccnc(Nc2cccc(-c3cnc(NCCc4c[nH]cn4)s3)c2)n1` [Example 35], the figure is no more than 100 nM.
As for `Cc1cc(Nc2nccc(C(F)(F)F)n2)cc(-c2cnc(NC[C@H]3CC[C@@H](N)CC3)s2)c1` [Example 98], the figure is no more than 100 nM; as for `Cc1cc(Nc2ncc(C3CC3)cn2)cc(-c2cnc(N3CCCNC(=O)C3)s2)c1` [Example 202], no more than 100 nM.
Regarding `Cc1cc(Nc2nccc(C(F)(F)F)n2)cc(-c2cnc(N3CCC4(CCNC4)CC3)s2)c1` [Example 1, N-{3-[2-(2,8-diazaspiro[4.5]dec-8-yl)-1,3-thiazol-5-yl]-5-methylphenyl}-4-(trifluoromethyl)-pyrimidin-2-amine], the IC50 was no more than 100 nM.
As for `Cc1cc(Nc2nccc(C(F)(F)F)n2)cc(-c2cnc(N3CC4CNC(CO)C4C3)s2)c1` (stereo not drawn) [Example 165], the figure is no more than 100 nM; as for `Cc1ccnc(Nc2cccc(-c3csc(N4CCC(C(N)=O)CC4)n3)c2)n1` [Example 232], 100 to 1000 nM.
With `Nc1cc(Nc2nccc(C(F)(F)F)n2)cc(-c2cnc(NCCO)s2)c1` [Example 190], the IC50 was no more than 100 nM.
As for `FC(F)(F)c1ccnc(Nc2cccc(-c3cnc(N4CCCNCC4)s3)c2)n1` [Example 167], the figure is no more than 100 nM; as for `FC(F)(F)c1ccnc(Nc2cccc(-c3cnc(NCc4cccnc4)s3)c2)n1` [Example 39], no more than 100 nM.
With `O=C1CCN(c2ncc(-c3cccc(Nc4nccc(C(F)(F)F)n4)c3)s2)CCN1` [Example 168] the figure was no more than 100 nM.
Regarding `OC1CCCC(Nc2ncc(-c3cccc(Nc4nccc(C(F)(F)F)n4)c3)s2)C1` (stereo not drawn) [Example 82], the IC50 was no more than 100 nM.
Take `Cc1cc(C)n(CCNc2ncc(-c3cccc(Nc4nccc(C(F)(F)F)n4)c3)s2)n1` [Example 63]: the IC50 was 100 to 1000 nM.
Take `FC(F)(F)c1ccnc(Nc2cccc(-c3cnc(NCC4CCCNC4)s3)c2)n1` (stereo not drawn) [Example 59]: the IC50 was no more than 100 nM.
Turning to `CN(CCO)c1ncc(-c2cc(N)cc(Nc3nccc(C(F)(F)F)n3)c2)s1` [Example 189], the IC50 was no more than 100 nM.
As for `Cc1cc(Nc2nccc(C(F)(F)F)n2)cc(-c2cnc(N(C)CCc3c[nH]c4ccccc34)s2)c1` [Example 90], the figure is 100 to 1000 nM; as for `Cc1cc(Nc2nccc(C(F)(F)F)n2)cc(-c2cnc(NCCc3cnccn3)s2)c1` [Example 96], no more than 100 nM.
With `CCSc1ccnc(Nc2cc(C)cc(-c3cnc(N4CCCNC(=O)C4)s3)c2)n1` [Example 221] the figure was no more than 100 nM; with `OCCCNc1ncc(-c2cccc(Nc3nccc(C(F)(F)F)n3)c2)s1` [Example 15], no more than 100 nM.
For the compound `Cn1cc(CNc2ncc(-c3cccc(Nc4nccc(C(F)(F)F)n4)c3)s2)cn1` [Example 62], the IC50 is no more than 100 nM.
Take `CC(=O)N1CCCN(c2ncc(-c3cccc(Nc4nccc(C(F)(F)F)n4)c3)s2)CC1` [Example 169]: the IC50 was no more than 100 nM.
